# Data from BigSolDB 2.1.
Structure (SMILES),"solubility (mole fraction) (in n-octanol, 293.15 K)","solubility (mole fraction) (in n-octanol, 298.15 K)","solubility (mole fraction) (in n-octanol, 303.15 K)","solubility (mole fraction) (in n-octanol, 310.15 K)","solubility (mole fraction) (in n-octanol, 315.15 K)","solubility (mole fraction) (in water, 293.15 K)","solubility (mole fraction) (in water, 298.15 K)","solubility (mole fraction) (in water, 303.15 K)","solubility (mole fraction) (in water, 310.15 K)","solubility (mole fraction) (in water, 315.15 K)"
O=[N+]([O-])c1ccc(NS(=O)(=O)c2ccccc2)cc1,0.00958,0.0116,0.0139,0.018,0.0222,1.45e-06,1.85e-06,2.32e-06,3.19e-06,3.71e-06
Nc1ccc(S(=O)(=O)Nc2ccc([N+](=O)[O-])cc2)cc1,0.0026,0.003,0.00361,0.00465,0.00562,2.72e-06,3.64e-06,4.88e-06,7.63e-06,8.29e-06
N#Cc1ccc(NS(=O)(=O)c2ccc(N)cc2)cc1,0.00112,0.00129,0.00158,0.00197,0.00234,4.11e-06,5.47e-06,7.58e-06,1.16e-05,1.45e-05
